Results: paper PMC5021521, “Coordinated recruitment of Spir actin nucleators and myosin V motors to Rab11 vesicle membranes” (eLife, 2016)
Peptide text beside a SMILES is read from it. * marks the point of attachment. 5FAM = O=C1OC2(c3ccc(O)cc3Oc3cc(O)ccc32)c2ccc(C(=O)*)cc21; Ahx = NCCCCCC(=O)O

Assays:
MyoVc-GTD = target: T1, MyoVc-GTD (Homo sapiens, UniProt Q9NQX4); assay: Microscale thermophoresis, fluorescein-labeled Spir-2 peptide; assay type: binding; settings: human Spir-2 aa 401–427
T1 construct: aa 1350 - 1742 (BamHI / XhoI); His6 (6xHis) with rTEV site (N, cleaved yes); made in house; host or cells: Escherichia coli BL21(DE3) or BL21-CodonPlus-RILP
Method: MST experiments were performed on a Monolith NT.115 system (NanoTemper Technologies, München, Germany) using 5% LED and 30% IR-laser power at 21.5°C. Laser on and off times were set at 30 s and 5 s, respectively. Fluorescein labeled Spir-2 peptide was synthesized by Genscript, the peptide was dissolved in PBS with 0.005% Tween-20 and diluted to 1 μM concentration. A two-fold dilution series was prepared for the MyoVc-GTD in the interaction buffer (50 mM Tris pH 8.0, 250 mM NaCl, 2 mM MgCl2, 2 mM TCEP, 5% (v/v) glycerol) and each dilution point was transferred to the Fluorescein-Spir-2 solution. The final concentrations of MyoVc-GTD ranged from 97 μM to 2.96 nM, the final concentration of the labeled peptide was 500 nM. Samples were filled into premium capillaries (NanoTemper Technologies) for measurements. The experiments were performed with three independent replicates. The affinity was quantified by analyzing the change in normalized fluorescence as a function of the concentration of the titrated peptide using the NTAnalysis software provided by the manufacturer.

MyoVb-GTD [1] = target: T2, MyoVb-GTD (Homo sapiens, UniProt Q9ULV0); assay: Fluorescence anisotropy, fluorescein-labeled Spir-2 peptide; assay type: binding
T2 construct: aa 1456 - 1848 (BamHI / XhoI); His6 (6xHis) with rTEV site (N, cleaved yes); made in house; host or cells: Escherichia coli BL21(DE3) or BL21-CodonPlus-RILP
T2 sequence (Q9ULV0 1456-1848): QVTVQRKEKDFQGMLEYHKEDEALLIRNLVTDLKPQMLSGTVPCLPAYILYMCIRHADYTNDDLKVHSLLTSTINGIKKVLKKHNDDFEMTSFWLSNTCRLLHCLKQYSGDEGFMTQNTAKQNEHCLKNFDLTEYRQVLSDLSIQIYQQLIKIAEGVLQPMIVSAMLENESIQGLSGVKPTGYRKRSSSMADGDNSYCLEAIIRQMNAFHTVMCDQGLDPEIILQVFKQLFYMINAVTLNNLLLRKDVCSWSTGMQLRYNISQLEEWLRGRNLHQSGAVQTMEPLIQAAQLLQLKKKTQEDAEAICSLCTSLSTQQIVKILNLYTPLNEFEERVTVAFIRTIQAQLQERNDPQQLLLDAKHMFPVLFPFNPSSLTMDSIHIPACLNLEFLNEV
Method: (§1) Fluorescence anisotropy measurements were performed on a PTI Quanta-Master QM4CW spectrofluorometer (PTI, Lawrenceville, NJ, USA) at 25°C using a 10 mm wide quartz cell. Bandwidths of excitation and emission monochromators were set respectively at 5 and 15 nm. Fluorescence anisotropy, expressed in millianisotropy units, was calculated according to the equation A=IVV−GIVH/IVV+2GIVH
(§2) with A is anisotropy, G = IHV/IHH is a correction factor for wavelength-dependent distortion, and I is the fluorescence intensity component. Anisotropy values were averaged from 30 different acquisitions. The cell was charged with 1 µM of fluorescein labeled Spir-2-401-427 peptide in a final volume of 1 ml in buffer (100 mM Tris-HCl pH 8.0, 150 mM NaCl, 2 mM MgCl2, 2 mM TCEP, 5% (v/v) glycerol) and titrated with MyoVa-GTD or MyoVb-GTD (50 nM–5 µM). The binding isotherms were fitted to obtain the equilibrium dissociation constants Kd and standard errors, by using the Origin 2015 software that implements Levenberg Marquardt iterative minimization algorithms, using the equation y=F0+Fm−F0/2P(P+x+Kd−(P+x+Kd)^2−4Px)
(§3) with y represents the fluorescence anisotropy, x the concentration of MyoV-GTD, F0 the initial anisotropy, Fm the maximum anisotropy, and P the peptide concentration. Experiments were repeated twice with two different protein preparations.

GST-Rab11a-Q70L = assay: GST-pulldown from HEK293 lysates; assay type: binding; settings: HEK293 lysates over-expressing Myc-Spir-2, Straw-FMN2-FH2-FSI and GFP-MyoVa-FL; N = 2
Method: HEK293 cells were co-transfected with expression vectors encoding Myc-Spir-2-FL, mStrawberry-FMN2-FH2-FSI, eGFP-MyoVa-D-FL and eGFP-MyoVa-D-Q1753R, respectively. 24 hr post transfection, cells were lysed in lysis buffer (25 mM Tris-HCl pH 7.4, 150 mM NaCl, 5 mM MgCl2, 10% (v/v) glycerol, 0.1% (v/v) Nonidet P-40, 1 mM PMSF, protease inhibitor cocktail) and centrifuged at 20,000 x g, 4°C, 20 min to remove insoluble debris. For GST-pulldown assays 65 µg GST-Rab11a-Q70L protein (25 µg GST control) was coupled to GSH-Sepharose 4B beads (1:1 suspension) for 1 hr, 4°C on a rotating wheel. Beads were washed twice with pulldown buffer (25 mM Tris-HCl pH 7.4, 150 mM NaCl, 5 mM MgCl2, 10% (v/v) glycerol, 0.1% (v/v) Nonidet P-40) and subsequently incubated with the cell lysates for 2 hr at 4°C on a rotating wheel. Beads were washed four times with pulldown buffer and bound proteins were eluted with 1x Laemmli buffer and denatured at 95°C for 10 min, then were analyzed by immunoblotting.

Myc-Spir-2 = assay: Colocalization with Spir-2 on vesicular structures in HeLa cells; assay type: cell-based, Homo sapiens; settings: full-length proteins co-expressed
Method: HeLa cells were seeded on microscope cover glasses and transfected with Myc-epitope-tagged Spir-2 proteins and fluorescently-tagged MyoV and Rab11 proteins as described above. Cells were fixed with paraformaldehyde (3.7% in 1x PBS) for 20 min at 4°C and subsequently permeabilized using 0.2% Triton X-100 (in 1x PBS) for 3.5 min, room temperature. […] Finally, cells were mounted on microscope slides with Mowiol and analyzed with a Leica AF6000LX fluorescence microscope, equipped with a Leica HCX PL APO 63x/1.3 GLYC objective and a Leica DFC350 FX digital camera (1392 × 1040 pixels, 6.45 × 6.45 µm pixel size). 3D stacks were recorded and processed with the Leica deconvolution software module. In case of the MyoVa autoregulation/activation experiments, we quantified the MyoVa expression levels. […] In order to clearly distinguish between vesicular and cytoplasmic MyoVa localization, we imaged either high or low expressing cells and determined the sum of pixel gray values per cell as a measure for the MyoVa expression levels. […] Images were recorded using the Leica LASX software and further processed with Adobe Photoshop and subsequently assembled with Adobe Illustrator.

HeLa cells = assay: Subcellular localization by fluorescence microscopy; assay type: cell-based; settings: single expression
Method: HeLa cells were seeded on microscope cover glasses and transfected with Myc-epitope-tagged Spir-2 proteins and fluorescently-tagged MyoV and Rab11 proteins as described above. Cells were fixed with paraformaldehyde (3.7% in 1x PBS) for 20 min at 4°C and subsequently permeabilized using 0.2% Triton X-100 (in 1x PBS) for 3.5 min, room temperature. Cells were incubated with anti-c-Myc antibody (9E10, mouse monoclonal, 2 µg/ml, Santa Cruz Biotechnology; RRID: AB_627268) for 1 hr at room temperature and conjugated anti-mouse secondary antibodies (Cy5; from donkey, 3.25 µg/ml, Dianova (RRID: AB_2340820) and TRITC; from donkey, 3.125 µg/ml, Dianova (RRID: AB_2340767)) for 1 hr at room temperature avoiding exposure to light. Finally, cells were mounted on microscope slides with Mowiol and analyzed with a Leica AF6000LX fluorescence microscope, equipped with a Leica HCX PL APO 63x/1.3 GLYC objective and a Leica DFC350 FX digital camera (1392 × 1040 pixels, 6.45 × 6.45 µm pixel size). 3D stacks were recorded and processed with the Leica deconvolution software module. In case of the MyoVa autoregulation/activation experiments, we quantified the MyoVa expression levels. […] In order to clearly distinguish between vesicular and cytoplasmic MyoVa localization, we imaged either high or low expressing cells and determined the sum of pixel gray values per cell as a measure for the MyoVa expression levels. Based on that, we only used cells for the autoregulation analysis having a sum of pixel gray values less than 20 × 10^6 for the expression of GFP-MyoVa-D-FL. Images were recorded using the Leica LASX software and further processed with Adobe Photoshop and subsequently assembled with Adobe Illustrator.

MyoVa-GTD [2] = target: T3, MyoVa-GTD (Homo sapiens, UniProt Q9Y4I1); assay: Fluorescence anisotropy, fluorescein-labeled Spir-2 peptide; assay type: binding; settings: 1 µM peptide, MyoVa-GTD 50 nM–5 µM; 100 mM Tris-HCl pH 8.0, 150 mM NaCl, 2 mM MgCl2, 2 mM TCEP, 5% glycerol; 25°C; ± standard error; repeated twice with two protein preparations; read-out: equilibrium dissociation constant (Kd)
T3 construct: aa 1461 - 1853 (BamHI / XhoI); His6 (6xHis) with rTEV site (N, cleaved yes); made in house; host or cells: Escherichia coli BL21(DE3) or BL21-CodonPlus-RILP
Method: as §1, §2, §3

MyoVa-GTD [3] = target: T3, MyoVa-GTD; assay: Surface plasmon resonance, Rab11a captured; assay type: binding; settings: MyoVa-GTD 10 nM–5 µM over captured Rab11a-Q70L(GTP) or Rab11-wt(GDP); 50 mM Hepes pH 7.5, 100 mM NaCl, 2 mM MgCl2, 1 mM TCEP; 25°C; steady state; mean ± SEM, N = 3; read-out: dissociation equilibrium constant (Kd)
Method: (§4) The assays were carried out at 25°C in buffer (50 mM Hepes pH 7.5, 100 mM NaCl, 2 mM MgCl2, 1 mM TCEP). 200–250 resonance units (RU; 1RU ≈ 1 pg × mm^−2) of Rab11a-Q70L(GTP) or Rab11-wt(GDP) were captured through their His6-tag on the surface of a NTA sensorchip using a Biacore 2000 instrument (GE Healthcare Life Sciences). MyoVa-GTD or MyoVb-GTD (10 nM–5 µM) were then injected over the tethered Rabs for one minute at a flow rate of […]. The surface was regenerated with a 2-min 0.3 M EDTA incubation and a 1-min 0.1% SDS wash. The real-time interaction profiles were double referenced using the Scrubber 2.0 software (BioLogic Software, Campbell, Australia), both the signals from a reference surface (with a non-relevant protein captured on NTA) and from blank experiments using buffer instead of MyoV-GTD were subtracted. The MyoV-GTD concentration-dependence of the steady-state SPR signals was then analyzed to determine the dissociation equilibrium constants (Kd) of the different complexes using the numerical integration algorithm software Biaevaluation 4.1. Each experiment (10 point 2-fold dilution concentration series each) was repeated in triplicate, yielding mean Kd values and standard errors (SEM).

MyoVb-GTD [4] = target: T2, MyoVb-GTD; assay: Surface plasmon resonance, Rab11a captured; assay type: binding; settings: MyoVb-GTD 10 nM–5 µM over captured Rab11a-Q70L(GTP) or Rab11-wt(GDP); 50 mM Hepes pH 7.5, 100 mM NaCl, 2 mM MgCl2, 1 mM TCEP; 25°C; steady state; mean ± SEM, N = 3; read-out: dissociation equilibrium constant (Kd)
Method: as §4

T3 sequence (Q9Y4I1 1463-1855): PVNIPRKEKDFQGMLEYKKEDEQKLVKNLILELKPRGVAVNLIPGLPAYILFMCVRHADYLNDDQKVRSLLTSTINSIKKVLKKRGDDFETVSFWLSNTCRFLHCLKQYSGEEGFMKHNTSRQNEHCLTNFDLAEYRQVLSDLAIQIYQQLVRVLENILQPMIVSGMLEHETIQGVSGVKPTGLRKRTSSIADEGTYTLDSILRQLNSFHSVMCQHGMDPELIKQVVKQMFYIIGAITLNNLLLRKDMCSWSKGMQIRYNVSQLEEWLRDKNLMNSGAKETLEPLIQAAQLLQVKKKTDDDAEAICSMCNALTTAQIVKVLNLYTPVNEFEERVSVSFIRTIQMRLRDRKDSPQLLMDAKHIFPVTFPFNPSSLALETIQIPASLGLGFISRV
T1 sequence (Q9NQX4 1350-1742): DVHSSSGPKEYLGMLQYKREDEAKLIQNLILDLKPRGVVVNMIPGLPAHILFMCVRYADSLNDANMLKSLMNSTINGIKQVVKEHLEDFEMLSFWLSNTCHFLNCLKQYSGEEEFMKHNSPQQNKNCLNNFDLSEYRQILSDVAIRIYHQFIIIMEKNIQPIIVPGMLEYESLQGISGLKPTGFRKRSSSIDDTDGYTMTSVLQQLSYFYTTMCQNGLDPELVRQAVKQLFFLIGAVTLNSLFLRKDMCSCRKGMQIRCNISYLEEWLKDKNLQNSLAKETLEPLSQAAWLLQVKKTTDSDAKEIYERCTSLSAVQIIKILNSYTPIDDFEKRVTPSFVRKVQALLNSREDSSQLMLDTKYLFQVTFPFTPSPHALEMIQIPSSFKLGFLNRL

Molecule: QRPRPRVLLKAPTLAEMEEMNTSEEEE [Spir-2-GTBM]
- binding affinity in words (MyoVc-GTD): micromolar range affinity
- binding affinity in words (MyoVb-GTD [1]; human Spir-2 aa 401–427): low micromolar affinity

Molecule: GFP-MyoVa-FL: eGFP-tagged full-length MyoVa
- pulldown by GST-Rab11a-Q70L in words (GST-Rab11a-Q70L): able to pull GFP-MyoVa-FL from cell lysates
- colocalization with Spir-2 in words (Myc-Spir-2): perfect colocalization
- subcellular localization in words (HeLa cells): even cytoplasmic distribution

Molecule: CSCC[C@H](NC(=O)[C@H](CCC(=O)O)NC(=O)[C@H](C)NC(=O)[C@H](CC(C)C)NC(=O)[C@@H](NC(=O)[C@@H]1CCCN1C(=O)[C@H](C)NC(=O)[C@H](CCCCN)NC(=O)[C@H](CC(C)C)NC(=O)[C@H](CC(C)C)NC(=O)[C@@H](NC(=O)[C@H](CCCNC(=N)N)NC(=O)[C@@H]1CCCN1C(=O)[C@H](CCCNC(=N)N)NC(=O)[C@@H]1CCCN1C(=O)[C@H](CCCNC(=N)N)NC(=O)[C@H](CCC(N)=O)NC(=O)CCCCCNC(=O)c1ccc2c(c1)C(=O)OC21c2ccc(O)cc2Oc2cc(O)ccc21)C(C)C)[C@@H](C)O)C(=O)N[C@@H](CCC(=O)O)C(=O)N[C@@H](CCC(=O)O)C(=O)N[C@@H](CCSC)C(=O)N[C@@H](CC(N)=O)C(=O)N[C@H](C(=O)N[C@@H](CO)C(=O)N[C@@H](CCC(=O)O)C(=O)N[C@@H](CCC(=O)O)C(=O)N[C@@H](CCC(=O)O)C(=O)N[C@@H](CCC(=O)O)C(=O)O)[C@@H](C)O [Fluorescein-Spir-2-GTBM] ({5FAM-Ahx}-QRPRPRVLLKAPTLAEMEEMNTSEEEE-OH)
- Kd (MyoVa-GTD [2]): 900 ± 110 nM
- Kd (MyoVb-GTD [1]; 1 µM peptide, MyoVb-GTD 50 nM–5 µM, 100 mM Tris-HCl pH 8.0, 150 mM NaCl, 2 mM MgCl2, 2 mM TCEP, 5% glycerol, 25°C, ± standard error, repeated twice with two protein preparations, read-out: equilibrium dissociation constant (Kd)): 2000 ± 70 nM

B1: Rab11GTP: Rab11a-Q70L(GTP) captured through its His6-tag (protein, UniProt P62491 2-213, looked up, variant Q70L)
Ras-related protein Rab-11A: GTRDDEYDYLFKVVLIGDSGVGKSNLLSRFTRNEFNLESKSTIGVEFATRSIQVDGKTIKAQIWDTAGLERYRAITSAYYRGAVGALLVYDIAKHLTYENVERWLKELRDHADSNIVIMLVGNKSDLRHLRAVPTDEARAFAEKNGLSFIETSALDSTNVEAAFQTILTEIYRIVSQKQMSDRRENDMSPSNNVVPIHVPPTTENKPKVQCC
modifications: His6 tag; GTP-bound
- Kd (MyoVa-GTD [3]): 203 ± 42 nM
- Kd (MyoVb-GTD [4]): 1370 ± 240 nM
